Molecules are shown by their SMILES. Like-named read-outs stand apart in the source and are kept apart here. Square brackets hold non-standard residues; d marks the D form. Peptide text beside a SMILES is read from it. * marks the point of attachment. Cbz = O=C(OCc1ccccc1)* Some results are limits rather than exact numbers.

The values below come from patent publication US20230014151A1, “COMBINATION ANTIVIRAL THERAPY FOR MEASLES” (The Trustees of Columbia University in the City of New York, priority 2019, published 2023).

One experiment relates to BG505 (HIV-1 strain). The conditions noted are these: read-out: IC50 BG505; pseudovirus, TZM-BL cells.
In another experiment the test system is B41 (HIV-1 strain). Conditions: read-out: IC50 B41; pseudovirus, TZM-BL cells.
In a further experiment the test system is 16055 (HIV-1 strain). Conditions: read-out: IC50 16055; pseudovirus, TZM-BL cells.
A further experiment relates to MN (HIV-1 strain). The conditions noted are these: read-out: IC50 MN; pseudovirus, TZM-BL cells.
For experiment [1], the system named is vesicular stomatitis virus (VSV). Conditions: 16 h.
In experiment [2] the test system is murine leukemia viruses (MLV). The conditions noted are these: read-out: IC50 MLV; pseudovirus, TZM-BL cells.
The target in experiment [3] is viral glycoproteins (H and F); Nectin-4 (Measles virus, UniProt Q786F3). The experiment in a line: beta-galactosidase complementation-based fusion assay, Nectin-4 target cells.
The test system of a further experiment is MeV “WTFb” strain. The experiment in a line: in vivo efficacy, intranasal peptides in MeV-infected cotton rats. The conditions noted are these: intranasal 24 h and 12 h before infection, 5 m/kg dose, 4 days post-infection. How it is done: FIGS. 84-93 further describe the invention. […] Intranasal administration of MeV-derived peptides protects cotton rats from MV infection. Cotton rats (n=4) were infected intranasally with MeV “WTFb” strain. Treatment was given intranasally 24 h and 12 h before infection in 100 ul (5 m/kg dose of peptides). The animals were euthanized 4 days post-infection.

For the next experiment, the system named is MeV IC323-EGFP-F L454W. As to the kind of experiment: organotypic brain cultures (OBC) infected with MeV bearing L454W F. The format is cell-based, mice.
Another experiment concerns wt MeV. The conditions noted are these: in vitro, ex vivo; cited from earlier work.
Another experiment deals with virus bearing L454W F. As to the kind of experiment: lethal infection of suckling mice, intranasal peptide. The conditions noted are these: intranasal administration.
For experiment [4], the target named is viral glycoproteins (H and F); CD150. As to the kind of experiment: beta-galactosidase complementation-based fusion assay, CD150 target cells.
Sequence of viral glycoproteins (H and F); CD150 (Q786F3 24-112): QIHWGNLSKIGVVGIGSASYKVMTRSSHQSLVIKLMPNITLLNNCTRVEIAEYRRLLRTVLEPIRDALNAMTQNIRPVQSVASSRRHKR
Sequence of viral glycoproteins (H and F); CD150 (Q786F3 113-550): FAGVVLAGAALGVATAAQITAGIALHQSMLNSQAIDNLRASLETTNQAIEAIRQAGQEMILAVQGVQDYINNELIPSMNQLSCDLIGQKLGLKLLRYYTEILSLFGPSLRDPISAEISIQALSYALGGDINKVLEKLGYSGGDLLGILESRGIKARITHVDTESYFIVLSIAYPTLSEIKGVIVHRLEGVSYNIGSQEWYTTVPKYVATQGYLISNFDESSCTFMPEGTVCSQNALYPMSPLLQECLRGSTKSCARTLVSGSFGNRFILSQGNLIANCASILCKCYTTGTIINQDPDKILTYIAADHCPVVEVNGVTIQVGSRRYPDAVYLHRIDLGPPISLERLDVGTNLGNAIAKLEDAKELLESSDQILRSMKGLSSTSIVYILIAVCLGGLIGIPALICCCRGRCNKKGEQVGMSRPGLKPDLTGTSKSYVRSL

Sequence of viral glycoproteins (H and F); Nectin-4 (Q786F3 24-112): as the sequence (Q786F3 24-112) above

Usually IC50 stands for the concentration that inhibits the measured activity by half. A word on the IC90: it is the concentration needed for an effect of 90%. Turning to `O=C(CNC(=O)[C@H](Cc1ccccc1)NC(=O)[C@@H](Cc1ccccc1)NC(=O)OCc1ccccc1)NCC(=O)N[C@@H](CO)C(=O)NCC(=O)N[C@@H](CO)C(=O)NCC(=O)N[C@@H](CS)C(=O)O` [FIP, Z-D-FFG-GSGSG-C (SEQ ID NO. 52)] (Cbz-[dF]FGGSGSGC-OH), the IC50 (in the experiment with BG505 (HIV-1 strain); with B41 (HIV-1 strain); in the experiment on 16055 (HIV-1 strain); in the experiment on MN (HIV-1 strain); in experiment [1]; in experiment [2]) was more than 5 µM throughout. The IC50 was determined as 9.72 ± 2.73 µM in [3] (IC50, Table 2 (salient peptides), Nectin-4 target cells) and 9.72 ± 2.73 µM in experiment [3] (Nectin4 IC50, Table 3 (extended version)). Also, the IC90 in experiment [3] and in [3] (read-out: Nectin4 IC90) was more than 10 µM in each case.

For the compound `CC[C@H](C)[C@H](NC(=O)[C@H](C)NC(=O)[C@H](CC(N)=O)NC(=O)CNC(=O)[C@H](CC(C)C)NC(=O)[C@H](CC(N)=O)NC(=O)[C@@H](NC(=O)CNC(=O)[C@@H](NC(=O)[C@H](CC(=O)O)NC(=O)[C@H](CC(C)C)NC(=O)[C@H](CCCNC(=N)N)NC(=O)[C@H](CCC(=O)O)NC(=O)[C@H](CC(C)C)NC(=O)[C@H](CO)NC(=O)[C@@H](NC(=O)[C@@H]1CCCN1C(=O)[C@@H]1CCCN1C(C)=O)[C@@H](C)CC)C(C)C)[C@@H](C)O)C(=O)N[C@@H](C)C(=O)N[C@@H](CCCCN)C(=O)N[C@@H](CC(C)C)C(=O)N[C@@H](CCC(=O)O)C(=O)N[C@@H](CC(=O)O)C(=O)N[C@@H](C)C(=O)N[C@@H](CCCCN)C(=O)N[C@@H](CCC(=O)O)C(=O)N[C@@H](CC(C)C)C(=O)N[C@@H](CC(C)C)C(=O)N[C@@H](CCC(=O)O)C(=O)N[C@@H](CO)C(=O)N[C@@H](CO)C(=O)N[C@@H](CC(=O)O)C(=O)N[C@@H](CCC(N)=O)C(=O)N[C@H](C(=O)N[C@@H](CC(C)C)C(=O)N[C@@H](CCCNC(=N)N)C(=O)NCC(=O)N[C@@H](CO)C(=O)NCC(=O)N[C@@H](CO)C(=O)NCC(=O)N[C@@H](CSC1CC(=O)N(CCCC(=O)NCCOCCOCCOCCOCCC(=O)NCCN(CCNC(=O)CCOCCOCCOCCOCCNC(=O)CCCN2C(=O)CC(SC[C@H](NC(=O)CNC(=O)[C@H](CO)NC(=O)CNC(=O)[C@H](CO)NC(=O)CNC(=O)[C@H](CCCNC(=N)N)NC(=O)[C@H](CC(C)C)NC(=O)[C@@H](NC(=O)[C@H](CCC(N)=O)NC(=O)[C@H](CC(=O)O)NC(=O)[C@H](CO)NC(=O)[C@H](CO)NC(=O)[C@H](CCC(=O)O)NC(=O)[C@H](CC(C)C)NC(=O)[C@H](CC(C)C)NC(=O)[C@H](CCC(=O)O)NC(=O)[C@H](CCCCN)NC(=O)[C@H](C)NC(=O)[C@H](CC(=O)O)NC(=O)[C@H](CCC(=O)O)NC(=O)[C@H](CC(C)C)NC(=O)[C@H](CCCCN)NC(=O)[C@H](C)NC(=O)[C@@H](NC(=O)[C@H](C)NC(=O)[C@H](CC(N)=O)NC(=O)CNC(=O)[C@H](CC(C)C)NC(=O)[C@H](CC(N)=O)NC(=O)[C@@H](NC(=O)CNC(=O)[C@@H](NC(=O)[C@H](CC(=O)O)NC(=O)[C@H](CC(C)C)NC(=O)[C@H](CCCNC(=N)N)NC(=O)[C@H](CCC(=O)O)NC(=O)[C@H](CC(C)C)NC(=O)[C@H](CO)NC(=O)[C@@H](NC(=O)[C@@H]3CCCN3C(=O)[C@@H]3CCCN3C(C)=O)[C@@H](C)CC)C(C)C)[C@@H](C)O)[C@@H](C)CC)[C@@H](C)CC)C(=O)O)C2=O)CCO[C@H]2CC[C@@]3(C)C(=CC[C@H]4[C@@H]5CC[C@H]([C@H](C)CCCC(C)C)[C@@]5(C)CC[C@@H]43)C2)C1=O)C(=O)O)[C@@H](C)CC` (stereo partly shown) [[HRC450-485-peg4]2-chol], in the experiment on MeV “WTFb” strain, the “MeV titration of lung homogenates” value is recorded as “reduces the viral titer compared to the untreated animals”. In addition, the “spread of virus in OBC (fluorescence)” value in the experiment with MeV IC323-EGFP-F L454W (10 nM) is given as “only partially inhibitory”; with MeV IC323-EGFP-F L454W (100 nM), “only isolated single infected cells were observed”; in the experiment on MeV IC323-EGFP-F L454W (either 100 nM or 10 nM, four days after infection), “blocks the spread of MeV-IC323-EGFP-F L454W”. Moreover, the “reduction in the number of MeV N RNA copies” value with MeV IC323-EGFP-F L454W (IFNAR1KO OBC, 10 nM, treated post-infection, vs untreated) is given as 4 fold. The “reduction of the viral load (MeV N RNA copies, RT-qPCR)” value in the experiment with MeV IC323-EGFP-F L454W (IFNAR1KO OBC, 100 nM, treated post-infection, vs untreated) is 2 log. Also, in the experiment on MeV IC323-EGFP-F L454W (IFNAR1KO OBC, concentrations below 10 nM), the “variation of the viral load” value is given as “No significant variation of the viral load”. The “dissemination of virus in OBC expressing human CD150 (SLAM)” value with MeV IC323-EGFP-F L454W (OBC from IFNAR1KO mice expressing human CD150, highest concentration) was “blocked dissemination of MeV IC323-EGFP-F L454W at least as well as WT virus”. Further, in the experiment on wt MeV, the “blocking of wt MeV infection (previous work)” value was “blocks infection with wt MeV in vitro, ex vivo and in vivo in cotton rats and mice”. Besides, the “protection from lethal infection” value with virus bearing L454W F is “protects suckling mice from lethal infection”. For the same compound, the IC50 in [4] is 0.1 ± 0.0651 µM; in experiment [3] it was 0.125 ± 0.175 µM. Moreover, the values for the IC90 in experiment [4] (read-out: CD150 IC90), in experiment [3] and in experiment [3] (read-out: Nectin4 IC90) were 0.698 ± 0.0223 µM, 0.379 ± 0.3 µM and 0.379 ± 0.3 µM, respectively.
